Molecular target: HIV integrase (Human immunodeficiency virus type 1 group M subtype B, UniProt P04585)
Test: assay described in WO 02/30930 for inhibition of strand transfer in HIV integrase
Type: biochemical
Text: As is clear from the foregoing description, compounds embraced by Formula X or XI and precursors thereof are useful as intermediates in the preparation of Compounds XII, XIII and XIV, which are HIV integrase inhibitors useful, inter alia, in treating HIV infection.

CN(C)C(=O)C(=O)N(C)C1CCCCn2c1nc(C(=O)NCc1ccc(F)cc1)c(O)c2=O (racemic) [Compound 14, N-(2-{[(4-fluorobenzyl)amino]carbonyl}-3-hydroxY4-oxo-4,6,7,8,9,10-hexahydropyrnidor[1,2-α]azepin-10-yl)-N,N′,N′-trimethylethanediamide]
inhibition of strand transfer in HIV integrase: exhibited activity
